Experimental data as given in patent US11759461B2, “Small molecule inhibitors of cancer stem cells and mesenchymal cancer types” (The Scripps Research Institute, priority 2017, dated 2023).
Where two headings read alike, the source gives them in different places.

Tested on: FOXC2-expressing HMLER cells
Test: Cell Titer Glo viability of FOXC2-HMLER cells (high throughput screen and 10-point response)
Format: cell-based
Settings: Homo sapiens, 72 hours
Method in brief: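 Viability after 72 h compound exposure was measured as Cell Titer Glo luminescence. FOXC2-HMLER and parental HMLER cells, 1,000 per well in MEGM medium, were dosed 1 h after plating; screening concentration was 2 μM.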

[1] = scored relative to parent compound 2, read-out: Activity Score, inhibition of FOXC2-expressing HMLER cells by Formula II compounds
[2] = scored relative to parent compound 3, read-out: Activity Score, inhibition of FOXC2-expressing HMLER cells by Formula III compounds

Row | SMILES | IC50 [1] | IC50 [2]
1 | CCOc1ccc(NC(=O)Cn2c(=O)c(CNc3ccc(CC)cc3)cc3ccc(OC)cc32)cc1 [Compound 2Z] | 1 to 20 µM | –
2 | COC(=O)c1ccccc1NC(=O)Cn1c(=O)c(CNc2ccccc2)cc2ccc(OC)cc21 [Compound 2] | < 1 µM | –
3 | Cc1ccc(C(=O)N2CCN(c3ccc(F)cc3)CC2)cc1-n1nnc2cccnc21 [Compound 3AA] | – | 1 to 20 µM
4 | Cc1ccc(CN2CCC(CNC(=O)c3ccc(C)c(-n4nnc5cccnc54)c3)CC2)cc1 [Compound 3AB] | – | 1 to 20 µM
5 | Cc1ccc(C)c(N2CCN(CCCNC(=O)c3ccc(C)c(-n4nnc5cccnc54)c3)CC2)c1 [Compound 3AC] | – | 1 to 20 µM
6 | Cc1ccc(Cl)cc1N1CCN(C(=O)c2cccc(-n3nnc4cccnc43)c2C)CC1 [Compound 3AD] | – | 1 to 20 µM
7 | Cc1c(C(=O)NC2CC2)cccc1-n1nnc2cccnc21 [Compound 3AE] | – | 1 to 20 µM
8 | Cc1c(C(=O)N2CCC(Cc3ccccc3)CC2)cccc1-n1nnc2cccnc21 [Compound 3AF] | – | 1 to 20 µM
9 | Cc1ccc(C)c(N2CCN(CCCNC(=O)c3cccc(-n4nnc5cccnc54)c3C)CC2)c1 [Compound 3AH] | – | 1 to 20 µM
10 | O=C(c1ccc(-n2nnc3cccnc32)cc1)N1CCC(Cc2ccccc2)CC1 [Compound 3AI] | – | 1 to 20 µM
11 | Cc1c(C(=O)N2CCN(c3ccccc3)CC2)cccc1-n1nnc2cccnc21 [Compound 3AJ] | – | 1 to 20 µM
12 | Cc1c(C(=O)NCCCN2CCC(Cc3ccccc3)CC2)cccc1-n1nnc2cccnc21 [Compound 3AK] | – | 1 to 20 µM
13 | CN(Cc1ccccc1)C(=O)c1ccc(-n2nnc3cccnc32)cc1 [Compound 3AL] | – | > 20 µM
14 | O=C(c1ccc(-n2nnc3cccnc32)cc1)N1CCN(c2ccccc2)CC1 [Compound 3AM] | – | > 20 µM
15 | O=C(c1ccc(-n2nnc3cccnc32)cc1)N1CCN(C2CCCCC2)CC1 [Compound 3AN] | – | > 20 µM
16 | CCN(Cc1ccccc1)C(=O)c1ccc(-n2nnc3cccnc32)cc1 [Compound 3AO] | – | > 20 µM
17 | COc1ccc(N2CCN(C(=O)c3ccc(-n4nnc5cccnc54)cc3)CC2)cc1 [Compound 3AP] | – | > 20 µM

Row | SMILES | IC50 [1] | IC50 [2]
18 | Cc1cc(C(=O)N2CCC(C)CC2)ccc1-n1nnc2cccnc21 [Compound 3AQ] | – | > 20 µM
19 | Cc1ccc(NC(=O)c2ccc(-n3nnc4cccnc43)c(C)c2)cc1C [Compound 3AR] | – | > 20 µM
20 | COc1ccc(N2CCN(C(=O)c3ccc(-n4nnc5cccnc54)c(C)c3)CC2)cc1 [Compound 3AS] | – | > 20 µM
21 | Cc1ccc(NC(=O)c2ccc(-n3nnc4cccnc43)c(C)c2)cc1 [Compound 3AT] | – | > 20 µM
22 | Cc1cc(C(=O)NCCCN2CCN(C3CCCCC3)CC2)ccc1-n1nnc2cccnc21 [Compound 3AU] | – | > 20 µM
23 | O=C(c1cccc(-n2nnc3cccnc32)c1)N1CCCC1 [Compound 3AV] | – | > 20 µM
24 | CCCCN(CC)C(=O)c1cccc(-n2nnc3cccnc32)c1 [Compound 3AW] | – | > 20 µM
25 | CCCCN(C)C(=O)c1cccc(-n2nnc3cccnc32)c1 [Compound 3AX] | – | > 20 µM
26 | O=C(NC1CCN(Cc2ccccc2)CC1)c1cccc(-n2nnc3cccnc32)c1 [Compound 3AY] | – | > 20 µM
27 | COc1ccc(N2CCN(C(=O)c3cccc(-n4nnc5cccnc54)c3)CC2)cc1 [Compound 3AZ] | – | > 20 µM
28 | Cc1cccc(N2CCN(C(=O)c3ccc(C)c(-n4nnc5cccnc54)c3)CC2C)c1 (stereo not shown) [Compound 3A] | – | < 1 µM
29 | O=C(NCCCN1CCN(Cc2ccccc2)CC1)c1cccc(-n2nnc3cccnc32)c1 [Compound 3BA] | – | > 20 µM
30 | Cc1ccc(C(=O)NCc2ccccc2)cc1-n1nnc2cccnc21 [Compound 3BB] | – | > 20 µM
31 | Cc1ccc(C(=O)N(C)Cc2ccccc2)cc1-n1nnc2cccnc21 [Compound 3BC] | – | > 20 µM
32 | Cc1ccc(CNC(=O)c2ccc(C)c(-n3nnc4cccnc43)c2)cc1 [Compound 3BD] | – | > 20 µM
33 | Cc1ccc(C(=O)N2CCN(C3CCCCC3)CC2)cc1-n1nnc2cccnc21 [Compound 3BE] | – | > 20 µM
34 | Cc1cccc(CNC(=O)c2ccc(C)c(-n3nnc4cccnc43)c2)c1 [Compound 3BF] | – | > 20 µM
